The target in this data set is T1, hERG K+ channel (Homo sapiens, UniProt Q12809).
T1 construct: expressed in transfected cells; host or cells: CHO (Chinese hamster ovary) cells, CHOhERG
As to the kind of experiment: hERG channel inhibition assay (patch-clamp, CHOhERG cells). The format is cell-based. Conditions: whole-cell patch-clamp; for IC20: human, CHO cells stably expressing hERG. Here is the method: hERG Channel Inhibition Assay
The hERG K^+ channels were cloned in humans and stably expressed in a CHO (Chinese hamster ovary) cell line. CHOhERG cells were used for patch-clamp (voltage-clamp, whole-cell) experiments. Cells were stimulated by a voltage pattern to activate hERG channels and conduct IKhERG Currents (rapid delayed outward rectifier potassium current of the hERG channel). After the cells were stabilized for a few minutes, the amplitude and kinetics of IKhERG were recorded at a stimulation frequency of 0.1 Hz (6 bpm). Thereafter, the test compound was added to the preparation at increasing concentrations. For each concentration, an attempt was made to reach a steady-state effect, usually, this was achieved within 3-10 min at which time the next highest concentration was applied. The amplitude and kinetics of IKhERG are recorded in each concentration of the drug which were compared to the control values (taken as 100%). (references: Redfern W S, Carlsson L, Davis A S, Lynch W G, MacKenzie I, Palethorpe S, Siegl P K, Strang I, Sullivan A T, Wallis R, Camm A J, Hammond T G. 2003; Relationships between preclinical cardiac electrophysiology, clinical QT interval prolongation and torsade de pointes for a broad range of drugs: evidence for a provisional safety margin in drug development. Cardiovasc. Res. 58:32-45, Sanguinetti M C, Tristani-Firouzi M. 2006; hERG potassium channels and cardiac arrhythmia. Nature 440:463-469, Webster R, Leishman D, Walker D. 2002; Towards a drug concentration effect relationship for QT prolongation and torsades de pointes. Curr. Opin. Drug Discov. Devel. 5:116-26).
On the technique in general: The hERG channel carries a current that helps repolarise heart muscle cells.

T1 sequence (Q12809 whole entry): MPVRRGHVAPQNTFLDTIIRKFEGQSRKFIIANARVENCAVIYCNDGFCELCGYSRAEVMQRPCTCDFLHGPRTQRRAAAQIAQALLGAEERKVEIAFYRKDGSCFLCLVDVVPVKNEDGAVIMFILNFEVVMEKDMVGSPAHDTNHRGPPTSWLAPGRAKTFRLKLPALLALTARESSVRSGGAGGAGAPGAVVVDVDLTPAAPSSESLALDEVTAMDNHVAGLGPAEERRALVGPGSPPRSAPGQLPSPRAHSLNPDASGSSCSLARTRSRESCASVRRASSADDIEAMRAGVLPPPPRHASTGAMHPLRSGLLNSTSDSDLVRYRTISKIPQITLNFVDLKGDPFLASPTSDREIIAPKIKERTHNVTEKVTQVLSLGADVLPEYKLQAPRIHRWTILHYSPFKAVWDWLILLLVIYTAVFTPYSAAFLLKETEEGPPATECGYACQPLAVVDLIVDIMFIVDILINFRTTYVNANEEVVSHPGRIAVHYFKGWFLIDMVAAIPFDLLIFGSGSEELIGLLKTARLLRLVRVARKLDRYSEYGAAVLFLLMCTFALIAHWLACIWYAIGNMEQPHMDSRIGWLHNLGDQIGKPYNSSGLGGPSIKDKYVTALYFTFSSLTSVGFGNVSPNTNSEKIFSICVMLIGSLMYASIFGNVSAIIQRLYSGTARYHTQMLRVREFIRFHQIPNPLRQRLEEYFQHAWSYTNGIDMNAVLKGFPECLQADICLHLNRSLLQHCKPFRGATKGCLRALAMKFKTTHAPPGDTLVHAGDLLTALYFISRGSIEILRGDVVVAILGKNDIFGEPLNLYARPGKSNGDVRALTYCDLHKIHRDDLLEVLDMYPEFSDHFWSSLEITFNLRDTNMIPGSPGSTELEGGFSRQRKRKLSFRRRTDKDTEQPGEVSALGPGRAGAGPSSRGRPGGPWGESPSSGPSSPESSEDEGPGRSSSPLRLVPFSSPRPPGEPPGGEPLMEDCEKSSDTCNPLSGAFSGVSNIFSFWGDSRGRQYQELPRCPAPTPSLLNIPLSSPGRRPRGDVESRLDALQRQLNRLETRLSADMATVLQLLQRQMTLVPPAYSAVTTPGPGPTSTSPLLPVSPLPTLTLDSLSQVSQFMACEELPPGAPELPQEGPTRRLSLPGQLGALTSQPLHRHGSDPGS

`C[C@@H]1CN(c2ccc(C#N)c3ncccc23)C[C@@H]2Cc3cc(N4C[C@@H]5CNCCN5C4=O)ccc3CN21` (single isomer, unassigned) [Example 17A] came in with an IC20 greater than 10 µM and an IC50 greater than 20 µM.
The matching figures for `C[C@@H]1CN(c2ccc(C#N)c3ncccc23)C[C@@H]2Cc3cc(N[C@@H]4CNC[C@@H]4F)ccc3CN21` [Example 6, 5-[(4R,11aS)-4-methyl-9-[[(3R,4S)-4-fluoropyrrolidin-3-yl]amino]-1,3,4,6,11,11a-hexahydropyrazino[1,2-b]isoquinolin-2-yl]quinoline-8-carbonitrile]: greater than 10 µM and greater than 20 µM.
For `C[C@@H]1CN(c2ccc(C#N)c3ncccc23)C[C@@H]2Cc3cc(OC[C@@H]4CCN4)ccc3CN21` [Example 12, 5-[(4R,11aS)-9-[[(2S)-azetidin-2-yl]methoxy]-4-methyl-1,3,4,6,11,11a-hexahydropyrazino[1,2-b]isoquinolin-2-yl]quinoline-8-carbonitrile] the same measures were 8.2 µM and greater than 20 µM.

As a reminder, the IC20 is the concentration at which the effect reaches the 20% level. A high value points to a need for much substance. The term IC50 denotes the midpoint of a concentration-inhibition curve. Lower therefore signals inhibition by little substance.

The record behind these values is patent US20230002375A1, “HYDROPYRAZINO[1,2-B]ISOQUINOLINE COMPOUNDS FOR THE TREATMENT OF AUTOIMMUNE DISEASE” (Hoffmann-La Roche Inc., priority 2019, published 2023).
